Results taken from patent publication US20020091095A1, “Modulation of Fas and FasL expression” (priority 1999, published 2002).

Assays:
FasL [1] = assay: FasL expression at the cell surface by flow cytometry, Jurkat cells; type: cell-based; conditions: Jurkat human leukemia T cells, 100 μg/ml sequence, 48 h, treated vs control cells
Method: (§1) Cancer cells and PBMCs were seeded in 6 well flat-bottom microplates and were maintained at 37° C. in a 5% CO2 atmosphere. Unless stated otherwise, 2×10^5 cells/ml were incubated for 48 h with 0 μg/ml (control) or 100 μg/ml ([…]) (treated) of the sequences.
(§2) Fas and FasL expression were measured by flow cytometry using anti-Fas FITC-conjugated monoclonal antibodies and anti-FasL PE-conjugated monoclonal antibodies in a FACScalibur Flow Cytometer (Becton Dickinson, San Jose, Calif., USA) using the CELLQuest program (Becton Dickinson).
(§3) Results are expressed as percentage (%) increase in the expression of Fas and of FasL measured on treated cells compared to control cells.
Jurkat human leukemia T cells are an atypical multi-drug resistant human suspension tumor cell model.

[2] = system: UMUC-3 bladder cancer cells; assay: Inhibition of UMUC-3 bladder cancer cell proliferation (MTT reduction); type: cell-based, human; conditions: for % INHIBITION of cell proliferation: UMUC-3, 48 h
Method: UMUC-3 bladder cancer cells were incubated for 48 hours with 0.00, 0.02 and 0.20 μg/ml of agonistic anti-Fas monoclonal antibodies (clone CH-11: Coulter-Immunotech, Marseille, France) +0 or 10 μg/ml of SEQ ID NO:5. Cell proliferation was measured using dimethylthiazol-diphenyltetrazolium (MTT) reduction (Mosman et al. J. Immunol. Methods 65:55, 1983). MTT was measured at a wavelength of 570 nm using a multiplate spectrophotometer reader (ELX800, Bio-TEK Instruments Inc., Winooski, Vt.).

[3] = system: EL-4 murine T lymphoma cells; assay: EL-4 murine T lymphoma implanted in C57/BL6 lpr/lpr mice; type: in vivo
Method: EL-4 murine T lymphoma cells are implanted into C57/BL6 lpr/lpr (Fas negative mice). The mice are divided into 30 groups of 10 mice. On day 0, group 1 mice receive saline, group 2 mice receive 1, 10 or 100 mg/kg of SEQ. ID NO:5, group 3 mice receive 1, 10 or 100 mg/kg of SEQ. ID NO:16, group 4 receive 1, 10 or 100 mg/kg of SEQ. ID NO:17, group 5 mice receive 1, 10 or 100 mg/kg of SEQ. ID NO: 18, group 6 mice receive anti-Fas antibodies, group 7 mice receive 1, 10 or 100 mg/kg of SEQ. ID NO:5 +anti-Fas antibodies, group 8 mice receive 1, 10 or 100 mg/kg of SEQ. ID NO: 16 +anti-Fas antibodies, group 9 receive 1, 10 or 100 mg/kg of SEQ. ID NO:17 +anti-Fas antibodies, group 10 mice receive 1, 10 or 100 mg/kg of SEQ. ID NO:18 +anti-Fas antibodies. In these different groups, anti-Fas antibodies are administered at any dose in the range of about 0.003 to about 0.3 mg/kg. […] The efficacy of the SEQ. ID NO:5, the SEQ. ID NO: 16 and the SEQ. ID NO: 17 is dose-dependent.

FasL [4] = assay: FasL expression at the cell surface by flow cytometry, SK-OV-3 cells; type: cell-based, human; conditions: SK-OV-3 ovarian cancer cells, 100 μg/ml sequence, 48 h, treated vs control cells
Method: as §1, §2, §3
(§4) SK-OV-3 ovarian cancer cells are a p53 mutated, p21/waf-1/Cip deleted, p15^ink4B,p16^ink4 deleted metastatic human solid tumor model.

FasL [5] = assay: FasL expression at the cell surface by flow cytometry, UMUC-3 cells; type: cell-based, human; conditions: UMUC-3 bladder cancer cells, 100 μg/ml sequence, 48 h, treated vs control cells
Method: as §1, §2, §3
(§5) UMUC-3 bladder cancer cells are a P-glycoprotein overexpressing human cell line.

Fas [6] = assay: Fas expression at the cell surface by flow cytometry, LNCaP cells; type: cell-based, human; conditions: LNCaP prostate cancer cells, 100 μg/ml sequence, 48 h, treated vs control cells
Method: as §1, §2, §3
LNCaP prostate cancer cells are a TGF-beta 1 receptor negative, […], metastatic human solid tumor model.

Fas [7] = assay: Inhibition of Fas expression on Jurkat cells by cycloheximide; type: cell-based, human; conditions: for % INCREASE of Fas: Jurkat cells
Method: as §2, §3
Jurkat human leukemia T cells were pre-incubated with 0.0 μg/ml (−CHX) or with 0.1 μg/ml of cycloheximide (+CHX) for 1 h. Ten μg/ml or 100 μg/ml of 6 base SEQ ID NO:5 (GGGTGG) was added to both the −CHX and +CHX cells and the incubation was continued for 24 hours and for 48 hours (Table 10).

FasL [8] = assay: FasL expression at the cell surface by flow cytometry, T-24 cells; type: cell-based, human; conditions: T-24 bladder cancer cells, 100 μg/ml sequence, 48 h, treated vs control cells
Method: as §1, §2, §3
T-24 bladder cancer cells are a p53 mutated human cell line T-24 cells (1.0×10^5 cells/ml) were incubated with the 6 base sequences shown in Table 4.

Fas [9] = assay: Fas expression at the cell surface by flow cytometry, SK-OV-3 cells; type: cell-based, human; conditions: SK-OV-3 ovarian cancer cells, 100 μg/ml sequence, 48 h, treated vs control cells
Method: as §1, §2, §3, §4

FasL [10] = assay: FasL expression at the cell surface by flow cytometry, OVCAR-3 cells; type: cell-based, human; conditions: OVCAR-3 ovarian cancer cells, 100 μg/ml sequence, 48 h, treated vs control cells
Method: as §1, §2, §3
(§6) OVCAR-3 ovarian cancer cells are a p53 mutated, p21/waf-1/Cip deleted, metastatic human solid tumor model.

Fas [11] = assay: Fas expression at the cell surface by flow cytometry, PBMCs; type: cell-based, human; conditions: 100 μg/ml sequence, 48 h, treated vs control cells
Method: (§7) Peripheral blood mononuclear cells (hereinafter, “PBMCs”) were isolated from human blood by Ficoll-Hypaque (Amersham Pharmacia Biotech, Baie d'Urfée, Québec, Canada) density gradient centrifugation.
as §1, §2, §3

Fas [12] = assay: Fas expression at the cell surface by flow cytometry, OVCAR-3 cells; type: cell-based, human; conditions: OVCAR-3 ovarian cancer cells, 100 μg/ml sequence, 48 h, treated vs control cells
Method: as §1, §2, §3, §6

FasL [13] = assay: FasL expression at the cell surface by flow cytometry, PBMCs; type: cell-based, human; conditions: 100 μg/ml sequence, 48 h, treated vs control cells
Method: as §7, §1, §2, §3

Fas [14] = assay: Fas expression at the cell surface by flow cytometry, MCF-7 cells; type: cell-based, human; conditions: MCF-7 breast cancer cells, 100 μg/ml sequence, 48 h, treated vs control cells
Method: as §1, §2, §3
MCF-7 human breast cancer cells are a caspase-3 negative, estrogen-dependent human solid tumor model.

Fas [15] = assay: Fas expression at the cell surface by flow cytometry, UMUC-3 cells; type: cell-based, human; conditions: UMUC-3 bladder cancer cells, 100 μg/ml sequence, 48 h, treated vs control cells
Method: as §1, §2, §3, §5

GGGTGG [SEQ ID NO:5]
% INCREASE FasL (FasL [1]): 145%
effect on the inhibitory activity of agonistic anti-Fas antibodies on cell proliferation ([2]; UMUC-3, 0.02 and 0.2 μg/ml anti-Fas antibodies, 10 μg/ml sequence): potentiated
% INHIBITION of cell proliferation ([2]; 10 μg/ml sequence + anti-Fas antibodies 0.02 μg/ml): 38%
% INHIBITION of cell proliferation ([2]; 10 μg/ml sequence + anti-Fas antibodies 0.02 μg/ml (third column)): 44%
% INHIBITION of cell proliferation ([2]; 10 μg/ml sequence, anti-Fas antibodies 0.0 μg/ml): 23%
efficacy, dose dependence ([3]; 1, 10 or 100 mg/kg): dose-dependent
tumor mass ([3]; sequence 1, 10 or 100 mg/kg + anti-Fas antibodies, vs all other groups): least tumor mass
tumor mass ([3]; single agent (sequence 1, 10 or 100 mg/kg, or anti-Fas antibodies) vs group 1 (saline)): less tumor mass
% INCREASE FasL (FasL [4]): −31%
% INCREASE FasL (FasL [5]): 143%
% INCREASE Fas (Fas [6]): 15%
Fas expression (Fas [7]; Jurkat T cells, 10 or 100 μg/ml, 24 h and 48 h): upregulated Fas expression
% INCREASE of Fas (Fas [7]; 10 μg/ml sequence, 24 h, +CHX (0.1 μg/ml cycloheximide)): 5%
% INCREASE of Fas (Fas [7]; 10 μg/ml sequence, 24 h, −CHX): 63%
% INCREASE of Fas (Fas [7]; 10 μg/ml sequence, 48 h, +CHX (0.1 μg/ml cycloheximide)): 51%
% INCREASE of Fas (Fas [7]; 10 μg/ml sequence, 48 h, −CHX): 91%
% INCREASE of Fas (Fas [7]; 100 μg/ml sequence, 24 h, +CHX (0.1 μg/ml cycloheximide)): 22%
% INCREASE of Fas (Fas [7]; 100 μg/ml sequence, 24 h, −CHX): 62%
% INCREASE of Fas (Fas [7]; 100 μg/ml sequence, 48 h, +CHX (0.1 μg/ml cycloheximide)): 115%
% INCREASE of Fas (Fas [7]; 100 μg/ml sequence, 48 h, −CHX): 150%
% INCREASE FasL (FasL [8]): 13%
% INCREASE Fas (Fas [9]): 3%
% INCREASE FasL (FasL [10]): 9%
% INCREASE Fas (Fas [11]): 3%
% INCREASE Fas (Fas [12]): 43%
% INCREASE FasL (FasL [13]): −20%
% INCREASE Fas (Fas [14]): 93%
% INCREASE Fas (Fas [15]): 67%
